Earlier results in patent EP0716679B1, “METHOD OF CLEANING VINYL SURFACES BY MEANS OF MILDLY ACIDIC HARD SURFACE CLEANING COMPOSITIONS CONTAINING AMINE OXIDE DETERGENT SURFACTANTS” (THE PROCTER & GAMBLE COMPANY, priority 1993, dated 1995).
Like-named read-outs stand apart in the source and are kept apart here.

pKa of acidifying agent (first pKa)	pKa of acidifying agent (second pKa)	pKa of acidifying agent (fourth pKa printed)	pKa of acidifying agent (third pKa printed)	Compound
1.7	2.6	10.6	6.3	O=C(O)CN(CCN(CC(=O)O)CC(=O)O)CC(=O)O [Ethylene diamine tetraacetic acid]

Compound	pKa of acidifying agent (first pKa)	pKa of acidifying agent (second pKa)	pKa of acidifying agent (fourth pKa printed)	pKa of acidifying agent (third pKa printed)
O=C(O)CC(O)C(=O)O (stereo not shown) [Malic acid]		5.05		
